In US8435987B2, “Pyrazolo-pyridinone and pyrazolo-pyrazinone compounds as P38 modulators and methods of use thereof” (Amgen Inc., priority 2007, dated 2013):
Like-named read-outs stand apart in the source and are kept apart here.

What was measured:
[1] = tested on: TNF-α secretion by LPS-treated THP1 cells; assay: Lipopolysaccharide-activated THP1 cell TNF production assay; type: cell-based; details: Homo sapiens, THP-1, 3 hours, read-out: IC50 in the THP-1 cellular TNF production assay
Experimental: Lipopolysaccharide-Activated THP1 Cell TNF Production Assay
THP1 cells were resuspended in fresh THP1 media (RPMI 1640, 10% heat-inactivated FBS, 1×PGS, 1×NEAA, plus 30 μM βME) at a concentration of 1.5×10^6 cells per mL. One hundred microliters of cells per well were plated in a polystyrene 96-well tissue culture plate. 1.5 micrograms per mL of bacterial LPS was prepared in THP1 media and transferred to the first 11 columns of a 96-well polypropylene plate. Column 12 contained only THP1 media for the LO control. Compounds were dissolved in 100% DMSO and serially diluted 3 fold in a polypropylene 96-well microtiter plate (drug plate). Columns 6 and 12 were reserved as controls (HI controls and LO controls respectively) and contained only DMSO. 10 μL of LPS followed by one microliter of inhibitor compound from the drug plate was transferred to the cell plate. The treated cells were induced to synthesize and secrete TNF-α in a 37° C. humidified incubator with 5% CO2 for 3 hours. Fifty microliters of conditioned media was transferred to a 96-well MULTI-ARRAY™ 96-well small spot plate—custom coated with MAB610 containing 100 μL of 2× Read Buffer P supplemented with 0.34 nM AF210NA polyclonal Ab labeled with ruthenium (MSD-Sulfo-TAG™—NHS ester). After an overnight incubation at room temperature with shaking, the reaction was read on the Sector Imager™ 6000. […] The amount of secreted TNF-α in the presence of AMG compounds compared with that in the presence of DMSO vehicle alone (HI control) was calculated using the formula: % control (POC)=(cpd−average LO)/(average HI−averageLO)*100. Data (consisting of POC and inhibitor concentration in μM) was fitted to a 4-parameter equation (y=A+((B−A)/(1+((x/C)^D))), where A is the minimum y (POC) value, B is the maximum y (POC), C is the x (cpd concentration) at the point of inflection and D is the slope factor) using a Levenburg-Marquardt non-linear regression algorithm.

recombinant human p38α = recombinant human p38α (Homo sapiens, UniProt Q16539); assay: Purified and activated recombinant human p38α HTRF assay; type: biochemical; details: 1 nM p38α, 50 μM ATP, 100 nM GST-ATF2-Avitag, read-out: p3a IC550
Experimental: Purified and Activated Recombinant Human p38α Assay
• Kinase Reaction Buffer: Kinase reaction buffer for p38α HTRF assays consists of 50 mM Tris-pH 7.5, 5 mM MgCl2, 0.1 mg/mL BSA, 100 μM Na3VO4 and 0.5 mM DTT. • HTRF Detection Buffer: HTRF detection buffer contains 100 mM HEPES-pH 7.5, 100 mM NaCl, 0.1% BSA, 0.05% Tween-20, and 10 mM EDTA. • Serial Dilution of Compounds: Compounds were dissolved in 100% DMSO and serially diluted (3 fold, 10 point) in a polypropylene 96-well microtiter plate (drug plate). The final starting concentration of compounds in the p38a enzymatic assays was 1 μM. Columns 6 and 12 (HI controls and LO controls respectively) in the drug plate were reserved as controls and contained only DMSO. • Kinase Reaction: The p38α kinase reactions were carried out in a polypropylene 96-well black round bottom assay plate in total volume of 30 μL kinase reaction buffer. Appropriate concentration of purified and activated enzyme (recombinant human) was mixed with indicated concentration of ATP and 100 nM GST-ATF2-Avitag, in the presence or absence (HI control) of Compound. See table below for actual concentrations. In the absence of substrate, the background was measured as LO control. The reaction was allowed to incubate for 1 hour at RT. • Assay Reagent Concentrations: The final reagent concentrations were 1 nM p38α and 50 μM ATP. […] After 60 minutes incubation at room temperature, the assay plate was read in a Discovery Plate Reader. The wells were excited with coherent 320 nm light and the ratio of delayed ([…] post excitation) emissions at […] (native europium fluorescence) and 665 nm (europium fluorescence transferred to allophycocyanin—an index of substrate phosphorylation) was determined (Park et al, 1999). • Data Analysis: The proportion of substrate phosphorylated in the kinase reaction in the presence of compound compared with that phosphorylated in the presence of DMSO vehicle alone (HI control) was calculated using the formula: % control (POC)=(compound−average LO)/(average HI−average LO)*100. Data (consisting of POC and inhibitor concentration in μM) was fitted to a 4-parameter equation (y=A+((B−A)/(1+((x/C)AD))), where A is the minimum y (POC) value, B is the maximum y (POC), C is the x (compound concentration) at the point of inflection and D is the slope factor, using a Levenburg-Marquardt non-linear regression algorithm.
The inhibition constant (Ki) of the inhibitor was estimated from the IC50 (compound concentration at the point of inflection C) using the Cheng-Prussof equation: Ki=IC50/(1+S/Km), where S is the ATP substrate concentration, and Km is the Michaelis constant for ATP as determined experimentally. All results were expressed as the mean± the standard error of the mean. Data acquisition and non-linear regression algorithms were performed using Activity Base v5.2 and XL-fit software v4.1 respectively. All data was archived using Activity Base v5.2 software.

[2] = tested on: secreted IL-8 by whole blood activated with TNF-α; assay: Inhibition of TNF-α induced IL-8 in 50% human whole blood; type: cell-based
Experimental: Inhibition of TNF-α Induced IL-8 in 50% Human Whole Blood
Test compounds were evaluated in vitro for the ability to inhibit the production of secreted IL-8 by whole blood activated with TNF-α. Fresh human whole blood was obtained from healthy, non-medicated volunteers in sodium heparin tubes.
Compound Dilution—Assay Procedure
Test compounds are serially diluted 1:3 in DMSO and then diluted 1:250 into R10 (RPMI 1640, 10% human serum AB, 1× pen/strep/glutamine) to the 4× working concentration to be used in the assay. 100 ul heparinized whole blood is plated into wells of 96 well flat bottom plates. 50 ul of either 4× compound or DMSO control (Final DMSO concentration is 0.1%) are added to the appropriate wells. Plates are incubated for 1 hour at 37 degrees Celsius. 50 ul of 4× TNF-α (4 nM TNF-α, for a final concentration of 1 nM) or control (media alone) is added to the appropriate wells (Total volume=200 ul). Plates are incubated overnight (16-18 hours). 100 ul of supernatant is collected and stored in 96-well round bottom polypropylene plates at −80 degrees Celsius or assayed immediately for IL-8.
Cytokines are measured on antibody (Ab) sandwich ECL based 96-well detection plates. 20 ul of supernatant are added to plate and plate is sealed and shaken at RT for 1 hour. 130 ul of detection Ab cocktail is added and plates are sealed and shaken for 1 hour in the dark at RT. Plates are read on MSD Sector HTS instrument. Data are analyzed and IC50 values generated using Activity Base and Xl-fit programs.

[3] = 50% human whole blood, TNF-α (1 nM final) induced IL-8, 16-18 hours, read-out: WB TNF/IL8 IC50
[4] = Homo sapiens, read-out: IC50, TNF-α induced IL-8 in 50% human whole blood

Sequence of recombinant human p38α (Q16539 whole entry): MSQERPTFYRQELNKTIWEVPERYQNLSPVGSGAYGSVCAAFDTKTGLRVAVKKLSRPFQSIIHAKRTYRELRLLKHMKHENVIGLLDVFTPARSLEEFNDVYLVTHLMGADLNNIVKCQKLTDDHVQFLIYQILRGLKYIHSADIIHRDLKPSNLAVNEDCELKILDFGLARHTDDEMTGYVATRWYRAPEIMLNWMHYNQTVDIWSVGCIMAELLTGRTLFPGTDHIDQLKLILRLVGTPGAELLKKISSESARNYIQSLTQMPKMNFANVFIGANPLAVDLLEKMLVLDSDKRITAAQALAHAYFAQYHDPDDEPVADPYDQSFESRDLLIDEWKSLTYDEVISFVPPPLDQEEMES

| IC50 [1] [nM] | IC50 (recombinant human p38α) [nM] | IC50 [2, 3] [nM] | IC50 [2, 4] [nM] | SMILES |
| --- | --- | --- | --- | --- |
| ≤ 100 | 8.1 | 1.1 | ≤ 100 | Cc1ccc2c(NC3CC3)noc2c1-c1cc2cnn(-c3c(F)cccc3F)c2n(C)c1=O [Example 1, 5-(3-(cyclopropylamino)-6-methylbenzo[d]isoxazol-7-yl)-1-(2,6-difluorophenyl)-7-methyl-1H-pyrazolo[3,4-b]pyridin-6(7H)-one] |
| ≤ 100 | 6.7 | 2.7 | ≤ 100 | CNc1noc2c(-c3cc4cnn(-c5c(F)cccc5F)c4n(C)c3=O)c(C)ccc12 [Example 5, 1-(2,6-difluorophenyl)-7-methyl-5-(6-methyl-3-(methylamino)-1,2-benzisoxazol-7-yl)-1,7-dihydro-6H-pyrazolo[3,4-b]pyridin-6-one] |
